According to patent US20180221435A1, “ITCH TREATMENT USING A COMBINATION OF NEUROKININ-1, GASTRIN RELEASING PEPTIDE, AND GLUTAMATE RECEPTOR ANTAGONISTS” (The Regents of the University of California, priority 2013, published 2018):
Entries after “also recorded” stand apart in the source; their conditions may differ.

Tests used:
Design in all cases: species or system mice
[1] = tested on: superficial dorsal horn neurons; experiment: In vivo single-unit recording, topical AITC-evoked firing, spinal superfusion of antagonists
Description: Akiyama T et al., The Journal of neuroscience: the official journal of the Society for Neuroscience 29(20):6691-6699 (2009)]. Anesthesia was induced by sodium pentobarbital (60 mg/kg ip) and maintained by supplemental injections (10-20 mg/kg/hr). […] A tungsten microelectrode recorded single-unit activity in the lumbar spinal cord. A chemical search strategy [Akiyama T et al., Journal of neurophysiology 102(4):2176-2183 2009; […] Following mechanical stimulation, histamine (50 μg) was injected id within the same receptive field at a different location via a separate injection cannula. Following the id histamine injection, we tested the effects of antagonists for the receptors of NK1, GRP, or AMPA/kainate in the same manner as described above for chloroquine. […] Following the AITC application, we tested the effects of the NK-1 receptor antagonist, the AMPA/kainate receptor antagonist, or a combination of both antagonists in the same manner as described above for chloroquine. Action potentials were recorded to a computer and counted using Chart software (AD Instruments, Colorado Springs Colo.) and Spike2 software (CED Instruments). […] Mean peak responses elicited by noxious pinch were compared by one way repeated-measures ANOVA followed by post-hoc Bonferroni test, with p<0.05 set as significant. At the end of each experiment, an electrolytic lesion was made at the spinal cord recording site.

[2] = tested on: superficial dorsal horn neurons; experiment: In vivo single-unit recording, noxious pinch-evoked responses, spinal superfusion of antagonists; settings: pinch at end of 1 min superfusion
Description: Akiyama T et al., The Journal of neuroscience: the official journal of the Society for Neuroscience 29(20):6691-6699 (2009)]. Anesthesia was induced by sodium pentobarbital (60 mg/kg ip) and maintained by supplemental injections (10-20 mg/kg/hr). […] A tungsten microelectrode recorded single-unit activity in the lumbar spinal cord. A chemical search strategy [Akiyama T et al., Journal of neurophysiology 102(4):2176-2183 2009; […] Units were classified as wide dynamic range (WDR)-type if they responded in a graded manner to innocuous mechanical stimulation (brushing, cotton wisp) and noxious pinch, or nociceptive-specific (NS) if they responded to noxious pinch (and to the 55 mN von Frey stimulus) but not to the cotton wisp or brush stimuli. […] Akiyama T et al., The Journal of neuroscience: the official journal of the Society for Neuroscience 29(20):6691-6699 (2009)]. […] At the end of the antagonist superfusion, the noxious pinch stimulus was delivered again at the same site on the receptive field. Thirty minutes later, the noxious pinch stimulus was delivered in the same manner. Action potentials were recorded to a computer and counted using Chart software (AD Instruments, Colorado Springs Colo.) and Spike2 software (CED Instruments). […]

[3] = tested on: superficial dorsal horn neurons; experiment: In vivo single-unit recording, id chloroquine-evoked firing, spinal superfusion of antagonists
Description: The single-unit recording from the lumbar spinal cord was conducted as previously detailed [Akiyama T et al., Journal of neurophysiology 102(4):2176-2183 (2009); Akiyama T et al., The Journal of neuroscience: the official journal of the Society for Neuroscience 29(20):6691-6699 (2009)]. Anesthesia was induced by sodium pentobarbital (60 mg/kg ip) and maintained by supplemental injections (10-20 mg/kg/hr). A gravity-driven perfusion system allowed artificial cerebrospinal fluid (Krebs: 117 mM NaCl, 3.6 mM KCl, 2.5 mM CaCl2, 1.2 mM MgCl2, 1.2 mM NaH2PO4, 25 mM NaHCO3 and 11 mM glucose which was equilibrated with 95% 02 and 5% CO2 at 37° C.) to be superfused continually over the exposed lumbosacral spinal cord [Akiyama T et al., PloS one 6(7):e22665 (2011)]. A tungsten microelectrode recorded single-unit activity in the lumbar spinal cord. A chemical search strategy [Akiyama T et al., Journal of neurophysiology 102(4):2176-2183 2009; Akiyama T et al., The Journal of neuroscience: the official journal of the Society for Neuroscience 29(20):6691-6699 (2009)] was used to identify and isolate chloroquine-responsive units. Our search strategy was intended to maximize the chance of isolating a chloroquine-responsive neuron; it was assumed that such neurons either gave rise to ascending projections, or served as interneurons in segmental scratch-reflex circuitry, and no attempt was presently made to distinguish between these possibilities.
Briefly, a small (˜0.25 μl) intradermal (id) microinjection of chloroquine (100 μg/μl) was made in the ventral hindpaw and a spontaneously active unit in the superficial lumbar dorsal horn (depth<300 um) was isolated. After the spontaneous activity had waned, chloroquine (1 μl, 100 μg/μl) was injected again at the same site through the same needle. […] Responses were usually recorded for at least 30 minutes, although in many cases unit firing declined over a shorter period.
Action potentials were recorded to a computer and counted using Chart software (AD Instruments, Colorado Springs Colo.) and Spike2 software (CED Instruments). Ongoing responses elicited by chloroquine, histamine, or AITC were averaged at 20-second intervals before, during and after the antagonist application, and compared by one way repeated-measures analysis of variance (ANOVA) followed by post-hoc Bonferroni test, with p<0.05 set as significant. The mean firing rate was calculated over a 20-second period 40 seconds after the antagonist application, and compared by one way ANOVA followed by post-hoc Bonferroni test, with p<0.05 set as significant. The criterion for decrease in ongoing firing was >70% decrease below the ongoing activity elicited by pruritogen over a 20-second period 40 seconds after the antagonist application. Mean peak responses elicited by noxious pinch were compared by one way repeated-measures ANOVA followed by post-hoc Bonferroni test, with p<0.05 set as significant. At the end of each experiment, an electrolytic lesion was made at the spinal cord recording site. The spinal cord was postfixed in 10% buffered formalin, cut in 50 μm frozen sections, and examined under the light microscope to identify lesions.

N#Cc1cc2[nH]c(=O)c(=O)[nH]c2cc1[N+](=O)[O-] [CNQX]
AITC-evoked firing, effect of spinal superfusion ([1]; topical AITC 75%): significantly reduced
Percentages of dorsal horn units that exhibited a decrease of 70% or more in firing rate following spinal superfusion of antagonists ([1]; topical AITC-evoked firing, superfusion 1 min, L-733060 200 μM, CNQX 100 μM): 62% (8/15)
noxious pinch-evoked response, effect of spinal superfusion [2]: significantly reduced
chloroquine-evoked firing compared to vehicle superfusion ([3]; 40-60 s of superfusion, normalized firing, vs vehicle): significantly attenuated chloroquine-evoked firing
chloroquine-evoked firing in NS cells ([3]; NS units, vs vehicle): significantly reduced
chloroquine-evoked firing in WDR cells ([3]; WDR units, vs vehicle): significantly reduced
chloroquine-evoked firing, effect of spinal superfusion ([3]; relative to chloroquine-evoked response prior to spinal superfusion): significantly attenuated during and after spinal superfusion; also recorded: reduced
